Laboratory results from US7897593B2, “HIV integrase inhibitors” (priority 2006, dated 2011).
Where two headings read alike, the source gives them in different places.

Experiments:
purified integrase = biological target: T1, purified integrase (Human immunodeficiency virus type 1 group M subtype B, UniProt P12497); experiment: HIV-Integrase binding assay (competition with radiolabeled integrase inhibitor); conditions: competition with [3H]-labeled integrase inhibitor; Cheng and Prusoff
T1 construct: Recombinant integrase (0.26 ng) was incubated with the beads
Experimental: HIV-Integrase binding assay. In this assay competitive binding experiments with test compounds and a radiolabeled integrase inhibitor (compound A) are performed against purified integrase. […] Binding reactions were carried out in 96-well white polystyrene assay plates (Corning, #3600). The following was added sequentially to each well: 20 μl of water or 20μl of human serum (Cellgro Cat# 35-060-CL), 5 μl of serially diluted compound (in 50% DMSO/50% integrase SPA buffer), 5 μl of [^3H]-compound I (6,000 cpm/μl in SPA buffer) and 20 μl of bead/DNA/enzyme complex. The plates were shaken for 2 hours and then allowed to sit at room temperature without shaking overnight. The [^3H]-compound I binding was measured using a Topcount scintillation counter. Cheng and Prusoff equations were used to convert the inhibition of compound 1 binding into the corresponding Ki value. Activity equal to A refers to a compound having Ki=0.001 to 0.003 μM while B and C denote compounds having Ki=0.003 to 0.05 μM and Ki≧0.050 μM respectively.

[1] = system: recombinant NL-Rluc virus; experiment: Inhibition of HIV replication; format: cell-based; conditions: three serum conditions described, the one tabulated is not stated
HIV-integrase = biological target: T2, HIV-integrase (Human immunodeficiency virus type 1 group M subtype B, UniProt P12497); experiment: HIV-Integrase Inhibition Activity (SPA strand transfer assay); format: biochemical; conditions: recombinant integrase, SPA beads, P33 labeled target DNA
T2 construct: Recombinant integrase (0.26 ng) was incubated with the beads
Experimental: HIV-Integrase InhibitionActivity. To evaluate in-vitro activity against HIV-integrase, 5 pmole of biotin labeled substrate DNA was bound to 100 μg of Streptavidin coated PVT SPA beads (Amersham Pharmacia Biotech). Recombinant integrase (0.26 ng) was incubated with the beads for 90 min at 37° C. Unbound enzyme was removed by washing the complex followed by addition of inhibitors and 0.1 fmol of P33 labeled target DNA. The reaction was stopped by adding EDTA to a final concentration of 10 mM. Samples were counted in TopCountNXT (Packard) and the CPM was used as a measure of integration. The reaction condition was as described in A. Engelman and R. Craigie, J. Virol 69, 5908-5911 (1995). The sequences of substrate and target DNA were described in Nucleic Acid Research 22, 1121-1122 (1994). Activity equal to A refers to a compound having IC50=0.001 to 0.01 μM B=0.01-0.1, and C≧0.1 μM respectively.

[2] = Human immunodeficiency virus 1, read-out: Antiviral Activity, NL-RLuc virus
[3] = read-out: Antiviral Activity, NL-RLuc virus

SMILES	Ki (purified integrase) [nM]	EC50 [1, 2] [nM]	EC50 [1, 3] [nM]	IC50 (HIV-integrase) [nM]
CN(C)S(=O)(=O)N1CCC2(CC1)COCCn1c2nc(C(=O)NCc2ccc(F)cc2)c(O)c1=O [Example 68]	3 to 50	10 to 100	–	–
Cc1ncnn1-c1cc(F)ccc1CNC(=O)c1nc2n(c(=O)c1O)CCCOC21CCN(S(C)(=O)=O)CC1 [Example 73]	3 to 50	–	> 100	–
Cc1nnc(C(=O)N2CCC3(C2)OCCn2c3nc(C(=O)NCc3ccc(F)cc3)c(O)c2=O)o1 (centres unmarked) [Example 44, N-(4-Fluorobenzyl)-3-hydroxy-1′-(5-methyl-1,3,4-oxadiazole-2-carbonyl)-4-oxo-6,7-dihydro-4H-spiro[pyrimido[2,1-c][1,4]oxazine-9,3′-pyrrolidine]-2-carboxamide]	1 to 3	10 to 100	–	–
Cc1ncnn1-c1cc(F)ccc1CNC(=O)c1nc2n(c(=O)c1O)CCOCC21CCN(C(=O)OCc2ccccc2)CC1 [Example 55]	3 to 50	1 to 10	–	–
Cc1ncnn1-c1cc(F)ccc1CNC(=O)c1nc2n(c(=O)c1O)CCOCC21CCN(C(=O)N(C)C)CC1 [Example 71]	3 to 50	10 to 100	–	–
COC(=O)N1CCC2(CC1)OCCCn1c2nc(C(=O)NCc2ccc(F)cc2-n2ncnc2C)c(O)c1=O [Example 64]	3 to 50	1 to 10	–	–
Cc1nnc(C(=O)N2CCC3(CC2)OCCCn2c3nc(C(=O)NCc3ccc(F)cc3-n3ncnc3C)c(O)c2=O)o1 [Example 67]	3 to 50	10 to 100	–	–
COC(=O)N1CCC2(CC1)OCCCn1c2nc(C(=O)NCc2ccc(F)cc2)c(O)c1=O [Example 58, Methyl 2′-(4-fluorobenzylcarbamoyl)-3′-hydroxy-4′-oxo-4′,6′,7′,8′-tetrahydrospiro[piperidine-4,10′-pyrimido[2,1-c][1,4]oxazepine]-1-carboxylate]	1 to 3	1 to 10	–	–
O=C(NCc1ccc(F)cc1)c1nc2n(c(=O)c1O)CCCOC21CCN(C(=O)OCc2ccccc2)CC1 [Example 48]	1 to 3	10 to 100	–	–
CC(=O)N1CCC2(CC1)OCCCn1c2nc(C(=O)NCc2ccc(F)cc2-n2ncnc2C)c(O)c1=O [Example 63]	3 to 50	10 to 100	–	–
Cc1nnc(C(=O)N2CCC3(C2)OCCn2c3nc(C(=O)NCc3ccc(F)cc3-n3ncnc3C)c(O)c2=O)o1 (centres unmarked) [Example 46, N-(4-Fluoro-2-(5-methyl-1H-1,2,4-triazol-1-yl)benzyl)-3-hydroxy-1′-(5-methyl-1,3,4-oxadiazole-2-carbonyl)-4-oxo-6,7-dihydro-4H-spiro[pyrimido[2,1-c][1,4]oxazine-9,3′-pyrrolidine]-2-carboxamide]	3 to 50	> 100	–	–
CC(=O)N1CCC2(CC1)OCCCn1c2nc(C(=O)NCc2ccc(F)cc2)c(O)c1=O [Example 57, 1-Acetyl-N-(4-fluorobenzyl)-3′-hydroxy-4′-oxo-4′,6′,7′,8′-tetrahydrospiro-[piperidine-4,10′-pyrimido[2,1-c][1,4]oxazepine]-2′-carboxamide]	1 to 3	1 to 10	–	–
Cc1ncnn1-c1cc(F)ccc1CNC(=O)c1nc2n(c(=O)c1O)CCOCC21CCN(S(=O)(=O)N(C)C)CC1 [Example 70]	3 to 50	10 to 100	–	–
CN(C)C(=O)C(=O)N1CCC2(CC1)NCCn1c2nc(C(=O)NCc2ccc(F)cc2)c(O)c1=O [Example 34, 1-(2-(Dimethylamino)-2-oxoacetyl)-N-(4-fluorobenzyl)-3′-hydroxy-4′-oxo-4′,6′,7′,8′-tetrahydrospiro[piperidine-4,9′-pyrazino[1,2-a]pyrimidine]-2′-carboxamide]	3 to 50	10 to 100	–	–
COC(=O)N1CCC2(CC1)COCCn1c2nc(C(=O)NCc2ccc(F)cc2-n2ncnc2C)c(O)c1=O [Example 72]	3 to 50	10 to 100	–	–
Cc1ncnn1-c1cc(F)ccc1CNC(=O)c1nc2n(c(=O)c1O)CCCOC21CCN(S(C)(=O)=O)CC1 [Example 62]	3 to 50	–	10 to 100	–

SMILES	Ki (purified integrase) [nM]	EC50 [1, 2] [nM]	EC50 [1, 3] [nM]	IC50 (HIV-integrase) [nM]
Cc1ncnn1-c1cc(F)ccc1CNC(=O)c1nc2n(c(=O)c1O)CCCOC21CCN(S(=O)(=O)N(C)C)CC1 [Example 66]	3 to 50	1 to 10	–	–
CCOC(=O)C(=O)N1CCC2(C1)OCCn1c2nc(C(=O)NCc2ccc(F)cc2-n2ncnc2C)c(O)c1=O (centres unmarked) [Example 47, Ethyl 2-(2-(4-fluoro-2-(5-methyl-1H-1,2,4-triazol-1-yl)benzylcarbamoyl)-3-hydroxy-4-oxo-6,7-dihydro-4H-spiro[pyrimido[2,1-c][1,4]oxazine-9,3′-pyrrolidine]-1′-yl)-2-oxoacetate]	3 to 50	> 100	–	–
Cc1ncnn1-c1cc(F)ccc1CNC(=O)c1nc2n(c(=O)c1O)CCCOC21CCN(C(=O)N(C)C)CC1 [Example 65]	3 to 50	1 to 10	–	–
Cc1ncnn1-c1cc(F)ccc1CNC(=O)c1nc2n(c(=O)c1O)CCCOC21CCN(C(=O)C(=O)N(C)C)CC1 [Example 74, 1-(2-(Dimethylamino)-2-oxoacetyl)-N-(4-fluoro-2-(5-methyl-1H-1,2,4-triazol-1-yl)benzyl)-3′-hydroxy-4′-oxo-4′,6′,7′,8′-tetrahydrospiro[piperidine-4,10′-pyrimido[2,1-c][1,4]oxazepine]-2′-carboxamide]	3 to 50	> 100	–	–
CN(C)C(=O)C(=O)N1CCC2(CC1)OCCCn1c2nc(C(=O)NCc2ccc(F)cc2)c(O)c1=O [Example 75, 1-(2-(Dimethylamino)-2-oxoacetyl)-N-(4-fluorobenzyl)-3′-hydroxy-4′-oxo-4′,6′,7′,8′-tetrahydrospiro[piperidine-4,10′-pyrimido[2,1-c][1,4]oxazepine]-2′-carboxamide]	3 to 50	10 to 100	–	–
Cc1ncnn1-c1cc(F)ccc1CNC(=O)c1nc2n(c(=O)c1O)CCCOC21CCN(C(=O)OCc2ccccc2)CC1 [Example 53]	3 to 50	1 to 10	–	–
CCOC(=O)C(=O)N1CCC2(C1)OCCn1c2nc(C(=O)NCc2ccc(F)cc2)c(O)c1=O (centres unmarked) [Example 45, Ethyl 2-(2-(4-fluorobenzylcarbamoyl)-3-hydroxy-4-oxo-6,7-dihydro-4H-spiro[pyrimido[2,1-c][1,4]oxazine-9,3′-pyrrolidine]-1′-yl)-2-oxoacetate]	1 to 3	10 to 100	–	–
CN(C)C(=O)N1CCC2(CC1)OCCCn1c2nc(C(=O)NCc2ccc(F)cc2)c(O)c1=O [Example 59]	1 to 3	1 to 10	–	–
O=C(NCc1ccc(F)cc1N1CCCCS1(=O)=O)c1nc2n(c(=O)c1O)CCCOC21CCN(C(=O)OCc2ccccc2)CC1 [Example 51]	3 to 50	1 to 10	–	–
CS(=O)(=O)N1CCC2(CC1)OCCCn1c2nc(C(=O)NCc2ccc(F)cc2)c(O)c1=O [Example 60]	1 to 3	1 to 10	–	–
Cc1ncn(-c2cc(F)ccc2CNC(=O)c2nc3n(c(=O)c2O)CCOC32CCN(C(=O)C(=O)N(C)C)CC2)n1 [Example 32, 1-(2-(Dimethylamino)-2-oxoacetyl)-N-(4-fluoro-2-(3-methyl-1H-1,2,4-triazol-1-yl)benzyl)-3′-hydroxy-4′-oxo-6′,7′-dihydro-4′H-spiro[piperidine-4,9′-pyrimido[2,1-c][1,4]oxazine]-2′-carboxamide]	–	> 100	–	10 to 100
Cc1nnc(C(=O)N2CCC3(CC2)NCCn2c3nc(C(=O)NCc3ccc(F)cc3)c(O)c2=O)o1 [Example 35, N-(4-Fluorobenzyl)-3′-hydroxy-1-(5-methyl-1,3,4-oxadiazole-2-carbonyl)-4′-oxo-4′,6′,7′,8′-tetrahydrospiro[piperidine-4,9′-pyrazino[1,2-a]pyrimidine]-2′-carboxamide]	3 to 50	10 to 100	–	–
CN(C)S(=O)(=O)N1CCC2(CC1)OCCCn1c2nc(C(=O)NCc2ccc(F)cc2)c(O)c1=O [Example 61]	1 to 3	1 to 10	–	–
CC(=O)N1CCC2(CC1)COCCn1c2nc(C(=O)NCc2ccc(F)cc2-n2ncnc2C)c(O)c1=O [Example 69]	3 to 50	> 100	–	–
CN(C)C(=O)C(=O)N1CCC2(C1)OCCn1c2nc(C(=O)NCc2ccc(F)cc2)c(O)c1=O (centres unmarked) [Example 40, 1′-(2-(Dimethylamino)-2-oxoacetyl)-N-(4-fluorobenzyl)-3-hydroxy-4-oxo-6,7-dihydro-4H-spiro[pyrimido[2,1-c][1,4]oxazine-9, 3′-pyrrolidine]-2-carboxamide]	–	10 to 100	–	1 to 10
